Read-outs that look alike come from different tables or passages of the source.
How the values were obtained:
Assay in all cases: IC50 assay, NSCLC cell lines (Cell Titer Glo, total ATP)
Type in all cases: cell-based
Settings in all cases: Homo sapiens
[1] = system: A549
Experimental: (§1) Cells were plated at ˜15% confluence in a media comprising 5% concentration of fetal bovine serum supplemented with RPMI, which included 2 mM L-Glutamine in a 96 well dish. […] Following three days of incubation in a 5% CO2 incubator, the total ATP in each well was quantified using Cell Titer Glo (Promega). […] The solid lines represent the medians.

[2] = system: H1355
Experimental: as §1

[3] = system: H1373
Experimental: as §1

[4] = system: H1395
Experimental: as §1

[5] = system: H1437
Experimental: as §1

[6] = system: H157
Experimental: as §1

[7] = system: H1648
Experimental: as §1

[8] = system: H1703
Experimental: as §1

[9] = system: H1755
Experimental: as §1

[10] = system: H1819
Experimental: as §1

[11] = system: H1993
Experimental: as §1

[12] = system: H2106
Experimental: as §1

[13] = system: H2126
Experimental: as §1

[14] = system: H2228
Experimental: as §1

[15] = system: H2342
Experimental: as §1

[16] = system: H2444
Experimental: as §1

[17] = system: H358
Experimental: as §1

[18] = system: H441
Experimental: as §1

[19] = system: H820
Experimental: as §1

[20] = system: H838
Experimental: as §1

[21] = system: HCC1359
Experimental: as §1

[22] = system: HCC2018
Experimental: as §1

[23] = system: HCC366
Experimental: as §1

[24] = system: HCC4017
Experimental: as §1

[25] = system: HCC95
Experimental: as §1

[26] = system: HOP62
Experimental: as §1

[27] = system: WI38
Experimental: as §1

[28] = read-out: Indisulam IC50 (log 10) (converted), U2AF1 WT
[29] = read-out: Indisulam IC50, U2AF1 WT

## NS(=O)(=O)c1ccc(S(=O)(=O)Nc2cccc3c(Cl)c[nH]c23)cc1 [Indisulam, indisulam]
[1]; [28]
  IC50: 46.6 µM
[1]; [29]
  IC50: 46.6 µM
[2]; NCI-H1355, read-out: Indisulam IC50 (log 10) (converted), U2AF1 WT
  IC50: 2.5 µM
[2]; NCI-H1355, read-out: Indisulam IC50, U2AF1 WT
  IC50: 2.5 µM
[3]; NCI-H1373, read-out: Indisulam IC50 (log 10) (converted), U2AF1 S34F
  IC50: 0.23 µM
[3]; NCI-H1373, read-out: Indisulam IC50, U2AF1 S34F
  IC50: 0.23 µM
[4]; NCI-H1395, read-out: Indisulam IC50 (log 10) (converted), U2AF1 WT
  IC50: 10.9 µM
[4]; NCI-H1395, read-out: Indisulam IC50, U2AF1 WT
  IC50: 10.9 µM
[5]; NCI-H1437, read-out: Indisulam IC50 (log 10) (converted), U2AF1 WT
  IC50: 14 µM
[5]; NCI-H1437, read-out: Indisulam IC50, U2AF1 WT
  IC50: 14 µM
[6]; NCI-H157, read-out: Indisulam IC50 (log 10) (converted), U2AF1 WT
  IC50: 140 µM
[6]; NCI-H157, read-out: Indisulam IC50, U2AF1 WT
  IC50: 140 µM
[7]; NCI-H1648, read-out: Indisulam IC50 (log 10) (converted), U2AF1 WT
  IC50: 16.8 µM
[7]; NCI-H1648, read-out: Indisulam IC50, U2AF1 WT
  IC50: 16.8 µM
[8]; NCI-H1703, read-out: Indisulam IC50 (log 10) (converted), U2AF1 WT
  IC50: 3.33 µM
[8]; NCI-H1703, read-out: Indisulam IC50, U2AF1 WT
  IC50: 3.33 µM
[9]; NCI-H1755, read-out: Indisulam IC50 (log 10) (converted), U2AF1 WT
  IC50: 252 µM
[9]; NCI-H1755, read-out: Indisulam IC50, U2AF1 WT
  IC50: 252 µM
[10]; NCI-H1819, read-out: Indisulam IC50 (log 10) (converted), U2AF1 WT
  IC50: 9.6 µM
[10]; NCI-H1819, read-out: Indisulam IC50, U2AF1 WT
  IC50: 9.6 µM
[11]; NCI-H1993, read-out: Indisulam IC50 (log 10) (converted), U2AF1 WT
  IC50: 1.42 µM
[11]; NCI-H1993, read-out: Indisulam IC50, U2AF1 WT
  IC50: 1.42 µM
[12]; [28]
  IC50: 0.616 µM
[12]; [29]
  IC50: 0.616 µM
[13]; NCI-H2126, read-out: Indisulam IC50 (log 10) (converted), U2AF1 WT
  IC50: 20.5 µM
[13]; NCI-H2126, read-out: Indisulam IC50, U2AF1 WT
  IC50: 20.5 µM
[14]; NCI-H2228, read-out: Indisulam IC50 (log 10) (converted), U2AF1 WT
  IC50: 1.26 µM
[14]; NCI-H2228, read-out: Indisulam IC50, U2AF1 WT
  IC50: 1.26 µM
[15]; NCI-H2342, read-out: Indisulam IC50 (log 10) (converted), U2AF1 WT
  IC50: 58.6 µM
[15]; NCI-H2342, read-out: Indisulam IC50, U2AF1 WT
  IC50: 58.6 µM
[16]; NCI-H2444, read-out: Indisulam IC50 (log 10) (converted), U2AF1 WT
  IC50: 14.1 µM
[16]; NCI-H2444, read-out: Indisulam IC50, U2AF1 WT
  IC50: 14.1 µM
[17]; NCI-H358, read-out: Indisulam IC50 (log 10) (converted), U2AF1 WT
  IC50: ≥ 500 µM
[17]; NCI-H358, read-out: Indisulam IC50, U2AF1 WT
  IC50: 2840 µM
[18]; NCI-H441, read-out: Indisulam IC50 (log 10) (converted), U2AF1 S34F
  IC50: 59.5 µM
[18]; NCI-H441, read-out: Indisulam IC50, U2AF1 S34F
  IC50: 59.5 µM
[19]; NCI-H820, read-out: Indisulam IC50 (log 10) (converted), U2AF1 WT
  IC50: 5.17 µM
[19]; NCI-H820, read-out: Indisulam IC50, U2AF1 WT
  IC50: 5.17 µM
[20]; NCI-H838, read-out: Indisulam IC50 (log 10) (converted), U2AF1 WT
  IC50: 1.03 µM
[20]; NCI-H838, read-out: Indisulam IC50, U2AF1 WT
  IC50: 1.03 µM
[21]; read-out: Indisulam IC50 (log 10) (converted), U2AF1 WT (listed twice)
  IC50: ≥ 50 µM
[21]; read-out: Indisulam IC50, U2AF1 WT (listed twice)
  IC50: ≥ 50 µM
[22]; [28]
  IC50: 6.48 µM
[22]; [29]
  IC50: 6.48 µM
[23]; [28]
  IC50: 6.91 µM
[23]; [29]
  IC50: 6.91 µM
[24]; [28]
  IC50: 12.6 µM
[24]; [29]
  IC50: 12.6 µM
[25]; [28]
  IC50: 9.5 µM
[25]; [29]
  IC50: 9.5 µM
[26]; HOP-62, read-out: Indisulam IC50 (log 10) (converted), U2AF1 WT
  IC50: 6.08 µM
[26]; HOP-62, read-out: Indisulam IC50, U2AF1 WT
  IC50: 6.08 µM
[27]; WI-38, read-out: Indisulam IC50 (log 10) (converted), U2AF1 WT
  IC50: 10 µM
[27]; WI-38, read-out: Indisulam IC50, U2AF1 WT
  IC50: 10 µM

— patent US20180140578A1, “METHODS AND COMPOSITIONS FOR THE DIAGNOSIS AND SELECTIVE TREATMENT OF CANCER” (Board of Regents of the University of Texas System, priority 2016, published 2018)
